Results as given in patent US20200071380A1, “COMBINATION THERAPIES COMPRISING SIRP ALPHA-BASED CHIMERIC PROTEINS” (Shattuck Labs, Inc., priority 2018, published 2020).

What was measured:
[1] = system: macrophages co-cultured with Toledo lymphoma cells; assay: qRT-PCR of macrophages sorted from Toledo lymphoma co-cultures; type: cell-based, human; details: qRT-PCR on macrophages isolated by FACS from Toledo co-cultures
Method: FIG. 8D: Macrophage:Toledo lymphoma co-cultures were harvested 2 hours into phagocytosis assays in the presence of rituximab ([…]), SIRPα-Fc-CD40L ([…]), or the combination of both agents. Macrophages were isolated by CD11b+FACS, RNA was prepared, cDNA synthesized, and gene expression (IFNa1, IFNb1, CD80, and CD86) assessed by qRT-PCR. Fold change was calculated using DDCT and values obtained from the housekeeping gene ACTB, and the corresponding values from untreated samples. […] After 2 hours, co-cultures were isolated from tissue culture vessels and were stained with a fluorescently conjugated CD11b antibody to discriminate macrophages. Cells were then assessed by flow cytometry for the co-localization of fluorescent signal from both cells types. […] After 24-hours type I interferon induced luminescence was assessed using a luminometer. The maximum luminescence (RLU) from each experiment was set to 1, and all other samples were normalized accordingly. […]
RNA was prepared from macrophages isolated using fluorescent activated cell sorting (FACS) from SIRPα-Fc-CD40L/Rituximab treated co-cultures macrophages and Toledo lymphoma cells. The RNA was assessed by gRT-PCR for expression of IFNα1 and IFNβ1, and the macrophage activation markers CD80 and CD86.

[2] = biological target: recombinant hCD47 and recombinant hCD40 (Homo sapiens, UniProt P25942+Q08722); assay: Functional dual ELISA, hCD40 capture and hCD47-His detection; type: binding
[3] = system: CT26 tumors; assay: Syngeneic CT26 colon tumor model versus CD40/CD47 antibodies (Example 11); type: in vivo, mice
Method: FIG. 20C: a similar CT26 experiment was initiated as described in FIG. 20A above, however mice were pre-treated on days −1, 1, and 10 with IP injections of 100 μg of either or both CD4/CD8 depleting antibodies. Mice were inoculated with CT26 tumors on day 0 and treated at a later starting date than FIG. 20A with mSIRPα-Fc-CD40L ARC on days 7, 9, and 11. […] In FIG. 20D and FIG. 20E, BALB/C mice were inoculated with WEHI3 tumors (FIG. 20D) or A20 tumors (FIG. 20E) subcutaneously on the rear flank, and then treated via IP injection with anti-CD20 or mSIRPα-Fc-CD40L on days 7, 9, and 11 (WEHI3) or days 10, 12, and 14 (A20); when tumors were established and reached approximately 57-60 mm^3. A cohort of mice were pre-treated with an interferon alpha receptor 1 (IFNAR1) blocking antibody ([…] by IP injection) on days -1, 1, and 10 (WEHI3) or on days −1, 1, and 13 (A20). FIG. 20F to FIG. 20H are graphs showing blockade of CD4, CD8, and IFNAR1. Peripheral blood analysis by flow cytometry of CD4 (FIG. 20F), CD8 (FIG. 20G), and IFNAR1 (FIG. 20H) depletion following depleting antibody treatment corresponding to FIG. 20C to FIG. 20E. Samples were normalized to untreated animals.
Implanted CT26 tumors were allowed to grow to ˜30 mm^3 before treatment was initiated with a fixed regimen of two doses of either a CD40 agonist antibody (clone FGK4.5), a CD47 blocking antibody (clone MIAP301), a combination of the two antibodies, or the murine SIRPα-Fc-CD40L chimeric protein. […] Based on this observation, these experiments were repeated in the setting of antibody-mediated depletion of both CD4+ and CD8+ cells (FIG. 20C).
CD4 and CD8 depletion was verified in the peripheral blood at multiple time points during the experiment (see, FIG. 20F and FIG. 20G).

[4] = system: cynomolgus macaque erythrocytes; assay: In vitro hemolysis assay, cynomolgus macaque erythrocytes; type: cell-based
Text: (§1) However, the in vitro systems used to test this question have significant limitations, including a complete lack of macrophages in the test system.

[5] = Repeat-dose safety and activity study in cynomolgus macaques; type: in vivo
Method: FIG. 21A-D is a graph showing cynomolgus macaques that were treated with vehicle, or 0.1, 1, 10, and 40 mg/kg of SIRPα-Fc-CD40L. Blood chemistry analysis assessed peripheral erythrocyte counts (FIG. 21A), hemoglobin levels (FIG. 21C), and hematocrit (FIG. 21B). In addition, the fold-change in lymphocyte count from pre-dose to 24 hours post-dose is shown (FIG. 21D).
The experiments of this example tested the safety and activity of the human SIRPα-Fc-CD40L chimeric protein following repeat doses in cynomolgus macaques. Briefly, naïve cynomolgus macaques were administered the human SIRPα-Fc-CD40L chimeric protein by intravenous infusion every week, for five consecutive weeks, at doses of 0.1, 1, 10 and 40 mg/kg. Standard hematology and clinical chemistry parameters were collected before and after each dose.
Receptor occupancy was evaluated on circulating CD40+ lymphocytes.

[6] = system: human donor red blood cells (RBCs); assay: In vitro hemolysis assay, human erythrocytes; type: cell-based
Method: FIG. 22B is a graph showing RBCs and test agents that were incubated at 37° C. for 24 hours and then the media was assessed at OD490 for changes in absorbance due to hemoglobin being released from lysing RBCs. […] FIG. 22D are graphs showing that peripheral blood was isolated from mice receiving three IP doses (300 μg) of the murine SIRPα-Fc-CD40L surrogate (arrows). Cell populations were assessed by flow cytometry and included CD20+ B cells, CD110+, CD4+/CD11c+, and CD8+/CD11c+ dendritic cells.
as §1

SIRPα-Fc-CD40L: Generic name of the SIRPα ECD-Fc-CD40L ECD chimeric protein; human or murine version depending on the test system
macrophage activation (CD80, CD86) and expression of type I interferon genes (IFNα1, IFNβ1) [1]: induced macrophage activation and the expression of type I interferon genes
simultaneous binding to recombinant hCD47 and recombinant hCD40 [2]: simultaneous binding
therapeutic benefit, requirement for CD4+ T cells ([3]; antibody-mediated depletion of CD4+ cells): partially required
therapeutic benefit in the absence of CD8+ cells ([3]; antibody-mediated depletion of CD8+ cells): completely eliminated the therapeutic benefit
proportion of AH1-tetramer positive CD8+ T cells ([3]; tumor and spleen, 13 days following tumor inoculation): increase in the proportion of AH1-tetramer positive CD8+T cells in both the tumor and spleen
hemolysis in vitro [4]: did not reveal evidence of hemolysis
number of CD40+ cells in the peripheral blood ([5]; 0.1, 1, 10 and 40 mg/kg): dose-dependent decrease in the number of CD40+ cells in the peripheral blood
hematology parameters ([5]; declines also noted in the vehicle control group): Mild declines in hematology parameters
total number of lymphocytes before and after each dose ([5]; episodic fluctuation): did not depart from the upper and lower range of normal
serum cytokines (CCL2, CXCL9, CXCL10, IL-6, IL-15, IL-17A, IL-23) ([5]; following each infusion): dose-dependent increases in multiple serum cytokines
hemolysis in vitro [6]: did not reveal evidence of hemolysis
